Each structure is given as a SMILES string. Like-named read-outs stand apart in the source and are kept apart here.

Data set [1] concerns the target T1, recombinant FP-2 (falcipain-2) (Plasmodium falciparum, UniProt Q8I6U4).
T1 construct: recombinant FP-2, which was expressed and purified as previously reported; made in house
T1 sequence (Q8I6U4 244-484): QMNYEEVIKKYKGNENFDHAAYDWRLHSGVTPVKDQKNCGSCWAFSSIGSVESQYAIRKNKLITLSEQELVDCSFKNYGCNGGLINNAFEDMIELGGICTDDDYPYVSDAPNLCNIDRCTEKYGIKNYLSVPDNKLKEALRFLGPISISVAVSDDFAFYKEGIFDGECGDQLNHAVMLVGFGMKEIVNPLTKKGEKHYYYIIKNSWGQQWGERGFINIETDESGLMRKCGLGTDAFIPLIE
The data set can be described thus: FP-2 inhibition assay, fluorogenic substrate Cbz-Leu-Arg-AMC. It counts as biochemical. Particulars: 30 nM FP-2, Cbz-Leu-Arg-AMC 25 µM, pH 5.5. The protocol:
Compounds were tested for inhibition of recombinant FP-2, which was expressed and purified as previously reported. Stock solutions of the compounds, substrate, and the positive control E64 (Sigma Aldrich, St. Louis, MO, USA) were prepared at 10 mM in 100% DMSO. The compounds were incubated in 96-well white flat-bottom plates with 30 nM recombinant FP-2 for 10 min at room temperature in an assay buffer of 100 mM sodium acetate, pH 5.5, with 5 mM DTT. After incubation, the fluorogenic substrate Cbz-Leu-Arg-AMC (R&D Systems, Minneapolis, MN, USA) was added at a concentration of 25 µM in a final assay volume of 200 µL. Fluorescence was monitored with a Varioskan Flash (ThermoScientific, Waltham, MA, USA) with excitation 355 nm and emission 460 nm. The IC50 values were calculated using GraphPad Prism v. 6 (GraphPad Software Inc., San Diego, CA, USA)) based on a sigmoidal dose response curves.

The subject of data set [2] is Bloodstream T. brucei parasites (T. b. brucei). Put plainly: Antitrypanosomal activity, ATPlite cell viability assay. The format is cell-based. Particulars: Trypanosoma brucei. (In ATP-based viability assays light output follows the ATP content of the culture.)
Experimental: The final compound concentrations in the microplates were 33.3 µM to 65 nM.
Bloodstream T. brucei parasites were incubated in the presence of various concentrations of the tested compounds and after 24 h or 48 h cell viability was determined using the ATPlite (PerkinElmer, Waltham, MA, USA) assay. Chlorhexidine served as positive control. […] Cell viability data was normalized to the untreated controls and analyzed using GraphPad Prism. Whenever possible, data were fitted by log(inhibitor) vs response nonlinear fit (solid lines) and IC50 values were calculated.
The target in another data set is T2, recombinant rhodesain (Trypanosoma brucei rhodesiense, UniProt Q95PM0).
T2 construct: Rhodesain was recombinantly expressed as previously described; made in house
Put plainly: Enzyme assay against recombinant rhodesain, fluorogenic substrate Cbz-Phe-Arg-AMC. The format is biochemical. Conditions: for inhibition at 100 µM: read-out: Rhodesain Percentage of Inhibition at 100 μM. The protocol:
All compounds 1-8a-b were tested against recombinant rhodesain [34] by using Cbz-Phe-Arg-AMC as a fluorogenic substrate (Table 1). First, a preliminary screening at a fixed inhibitor concentration of 100 μM was performed.
An equivalent volume of DMSO was used as the negative control, and E-64, an irreversible inhibitor of clan CA family C1 cysteine proteases, was used as the positive control. For compounds that inhibited the enzyme activity at least 50% at […], continuous assays were performed at seven different concentrations to determine dissociation constants.
Preliminary screening with rhodesain was performed with 100 µM inhibitor concentrations using an equivalent amount of DMSO as negative control. Rhodesain was recombinantly expressed as previously described. Product release from substrate hydrolysis (Cbz-Phe-Arg-AMC, 10 µM) was determined continuously over a period of 10 min. […] The assay buffer contained 50 mM sodium acetate, pH = 5.5, 5 mM EDTA, 200 mM NaCl, and 0.005% Brij. The enzyme buffer contained 5 mM DTT rather than Brij. Product formation was monitored continuously for 10 min at room temperature. Inhibitor solutions were prepared from stocks in DMSO. Each independent assay was performed twice in duplicate in 96-well plates in a total volume of 200 µL. Fluorescence of the product AMC of the substrate hydrolyses was measured using an Infinite 200 PRO microplate reader (Tecan, Männedorf, Switzerland) at room temperature with a 380 nm excitation filter and a 460 nm emission filter.

The mark [3] stands for this setting: 24 h incubation, ATPlite cell viability, read-out: Antitrypanosomal IC50 (24 h).
The mark [4] stands for this setting: inhibitor 100 μM, n.i. = no inhibition.

T2 sequence (Q95PM0 entry or part of it): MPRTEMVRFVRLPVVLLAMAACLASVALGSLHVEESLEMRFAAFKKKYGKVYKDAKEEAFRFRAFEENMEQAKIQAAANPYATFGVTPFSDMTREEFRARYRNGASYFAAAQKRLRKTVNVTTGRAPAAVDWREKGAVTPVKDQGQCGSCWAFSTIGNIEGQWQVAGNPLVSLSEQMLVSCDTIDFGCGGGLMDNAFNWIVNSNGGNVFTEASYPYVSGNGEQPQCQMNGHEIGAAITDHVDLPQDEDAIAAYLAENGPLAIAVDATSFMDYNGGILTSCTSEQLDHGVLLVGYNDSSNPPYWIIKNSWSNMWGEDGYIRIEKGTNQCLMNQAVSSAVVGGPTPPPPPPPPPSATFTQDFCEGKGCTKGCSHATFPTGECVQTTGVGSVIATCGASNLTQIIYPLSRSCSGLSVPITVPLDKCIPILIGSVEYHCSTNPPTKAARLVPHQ

Turning to `Cc1cn(CC(=O)N[C@H](C#N)CCc2ccccc2)c2ccccc12` [3a, N-((S)-1-Cyano-3-phenylpropyl)-2-(3-methyl-1H-indol-1-yl)acetamide], the melting point (commonly the temperature of the solid-liquid transition) lay within 114 to 115 °C. In addition, the IC50 – broadly, the point on the concentration scale where inhibition reaches its midpoint – in data set [1] is more than 50 µM.
Consider `[H]/N=C(\N/C(=N/[H])NCCCCCCNC(=N)NC(=N)Nc1ccc(Cl)cc1)Nc1ccc(Cl)cc1` [Chlorhexidine, chlorhexidine, reference compound], for which the IC50 was determined as 0.7 ± 0.2 µM in data set [2] (48 h, read-out: Antitrypanosomal IC50 (48 h)) and 0.98 µM in data set [2] (setting [3]).
In turn, `N#C[C@H](CCc1ccccc1)NC(=O)Cn1ccc2cc(F)ccc21` [4a, N-((S)-1-Cyano-3-phenylpropyl)-2-(5-fluoro-1H-indol-1-yl)acetamide] returned a melting point of 150 to 152 °C. The inhibition (in general, the share of the control response that was lost under treatment) at 100 µM on recombinant rhodesain was 18.7%.
For `N#CC1(NC(=O)CCn2ccc3cc(F)ccc32)CC1` [8b, N-(1-Cyanocyclopropyl)-3-(5-fluoro-1H-indol-1-yl)propanamide], the inhibition at 100 µM on recombinant rhodesain was found to be 9.6%.
Compound `N#C[C@H](CCc1ccccc1)NC(=O)CCn1ccc2cc(F)ccc21` [4b, N-((S)-1-Cyano-3-phenylpropyl)-3-(5-fluoro-1H-indol-1-yl)propanamide] displayed a melting point of 142 to 143 °C. For the same compound, the inhibition at 100 µM on recombinant rhodesain amounted to 1.9%.
As for `N#CC1(NC(=O)CCn2ccc3ccccc32)CC1` [5b, N-(1-Cyanocyclopropyl)-3-(1H-indol-1-yl)propanamide], the melting point is 139 to 141 °C. For the same compound, the IC50 in data set [1] was more than 50 µM. Moreover, the inhibition at 100 µM on recombinant rhodesain (setting [4]) is 4.4%.
Turning to `Cc1cc2ccccc2n1CCC(=O)N[C@H](C#N)CCc1ccccc1` [2b, N-((S)-1-Cyano-3-phenylpropyl)-3-(2-methyl-1H-indol-1-yl)propanamide], the melting point was in the range of 144 to 145 °C. Besides, the IC50 in data set [1] came out at 40.4 µM. Further, the IC50 in data set [2] (setting [3]) is 12 ± 0.7 µM. In addition, the IC50 in data set [2] (48 h incubation, ATPlite cell viability, read-out: Antitrypanosomal IC50 (48 h)) stood at 12 ± 3 µM.
For the compound `Cc1cc2ccccc2n1CC(=O)NC1(C#N)CC1` [6a, N-(1-Cyanocyclopropyl)-2-(2-methyl-1H-indol-1-yl)acetamide], the IC50 in data set [1] was more than 50 µM. The “Rhodesain Percentage of Inhibition at 100 μM” value on recombinant rhodesain (setting [4]) was “n.i”.
For the compound `Cc1cn(CC(=O)NC2(C#N)CC2)c2ccccc12` [7a, N-(1-Cyanocyclopropyl)-2-(3-methyl-1H-indol-1-yl)acetamide], the IC50 in data set [1] is more than 50 µM. Besides, the “Rhodesain Percentage of Inhibition at 100 μM” value at recombinant rhodesain (setting [4]) is listed as “n.i”.
`Cc1cn(CCC(=O)N[C@H](C#N)CCc2ccccc2)c2ccccc12` [3b, N-((S)-1-Cyano-3-phenylpropyl)-3-(3-methyl-1H-indol-1-yl)propanamide]: the melting point lay within 130 to 132 °C. Further, the inhibition at 100 µM on recombinant rhodesain is 7.8%.
Regarding `N#C[C@H](CCc1ccccc1)NC(=O)Cn1ccc2ccccc21` [1a, N-((S)-1-Cyano-3-phenylpropyl)2-(1H-indol-1-yl)acetamide], the melting point fell in the range of 120 to 121 °C. For the same compound, in data set [1], the concentration for half-maximal inhibition (IC50) was more than 50 µM. In addition, in data set [2] (24 h incubation, ATPlite cell viability, fitted beyond tested range (max 33.3 µM), read-out: Antitrypanosomal IC50 (24 h)), the IC50 was 1500 ± 2000 µM. The IC50 in data set [2] (48 h incubation, ATPlite cell viability, fitted beyond tested range (max 33.3 µM), read-out: Antitrypanosomal IC50 (48 h)) was determined as 280 ± 290 µM.
For the compound `Cc1cn(CCC(=O)NC2(C#N)CC2)c2ccccc12` [7b, N-(1-Cyanocyclopropyl)-3-(3-methyl-1H-indole-1-yl)propanamide], the inhibition at 100 µM at recombinant rhodesain came out at 9.5%.
Still for that read-out and setting: for `N#CC1(NC(=O)Cn2ccc3cc(F)ccc32)CC1` [8a, N-(1-cyanocyclopropyl)-2-(5-fluoro-1H-indol-1-yl)acetamide] the value was 4.5%.
For `CC(C)C[C@H](NC(=O)[C@H]1O[C@@H]1C(=O)O)C(=O)NCCCCN=C(N)N` [E-64, reference compound], the IC50 in data set [1] came out at 0.051 µM. Further, the Ki (in general, a measure of affinity in units of concentration, obtained from inhibition or displacement) at recombinant rhodesain (Cbz-Phe-Arg-AMC 10 µM, pH 5.5, progress curves 10 min, Ki = IC50/(1 + [S]/Km)) came to 0.033 ± 0.007 µM.
In the case of `N#CC1(NC(=O)Cn2ccc3ccccc32)CC1` [5a, N-(1-Cyanocyclopropyl)-2-(1H-indol-1-yl)acetamide], in data set [1], the IC50 is more than 50 µM. The inhibition at 100 µM on recombinant rhodesain (setting [4]) came out at 6.2%.
On to `Cc1cc2ccccc2n1CC(=O)N[C@H](C#N)CCc1ccccc1` [2a, N-((S)-1-Cyano-3-phenylpropyl)-2-(2-methyl-1H-indol-1-yl)acetamide], for which the melting point is 131 to 133 °C. In data set [1], the IC50 is more than 50 µM.
In the case of `N#C[C@H](CCc1ccccc1)NC(=O)CCn1ccc2ccccc21` [1b, N-((S)-1-Cyano-3-phenylpropyl)-3-(1H-indol-1-yl)propanamide], the melting point lay within 155 to 156 °C. Besides, the IC50 in data set [1] was more than 50 µM. Besides, the “Rhodesain Percentage of Inhibition at 100 μM” value at recombinant rhodesain (setting [4]) was “n.i”.

(Values after paper PMC11050014, “Development of Novel Peptidyl Nitriles Targeting Rhodesain and Falcipain-2 for the Treatment of Sleeping Sickness and Malaria” (International Journal of Molecular Sciences, 2024).)
